# Source: ChEMBL document CHEMBL4038275, “t-Butyl pyridine and phenyl C-region analogues of 2-(3-fluoro-4-methylsulfonylaminophenyl)propanamides as potent TRPV1 antagonists” (Bioorg Med Chem, 2017)
# The source made the active and inactive calls. The rule behind the calls is not given here.
# Experiments:
# [1] = target: Transient receptor potential cation channel subfamily V member 1 (Homo sapiens, UniProt Q8NER1); assay: Antagonist activity at human TRPV1 expressed in CHOK1 cells assessed as inhibition of capsaicin induced calcium influx pretreated for 6 mins followed by capsaicin addition by Fluo-4/Pluronic F127 probe based FLIPR method; assay type: cell-based
# [2] = tested on: Mus musculus; assay: Analgesic activity in po dosed Bennett mouse model of neuropathic pain assessed as reduction in chronic constriction injury-induced cold allodynia; assay type: functional, organism-based
# [3] = tested on: Mus musculus; assay: Analgesic activity in Bennett mouse model of neuropathic pain assessed as reduction in chronic constriction injury-induced cold allodynia at 10 mg/kg, po relative to control; assay type: functional
# [4] = tested on: Mus musculus; assay: Analgesic activity in Bennett mouse model of neuropathic pain assessed as reduction in chronic constriction injury-induced cold allodynia at 3 mg/kg, po relative to control; assay type: functional
# [5] = tested on: Mus musculus; assay: Analgesic activity in mouse assessed as reduction in capsaicin induced hypothermia at 3 mg/kg, po relative to control; assay type: functional
# [6] = tested on: Mus musculus; assay: Analgesic activity in mouse assessed as reduction in capsaicin induced hypothermia at 10 mg/kg, po relative to control; assay type: functional
# Sequence of Transient receptor potential cation channel subfamily V member 1 (Q8NER1 whole entry): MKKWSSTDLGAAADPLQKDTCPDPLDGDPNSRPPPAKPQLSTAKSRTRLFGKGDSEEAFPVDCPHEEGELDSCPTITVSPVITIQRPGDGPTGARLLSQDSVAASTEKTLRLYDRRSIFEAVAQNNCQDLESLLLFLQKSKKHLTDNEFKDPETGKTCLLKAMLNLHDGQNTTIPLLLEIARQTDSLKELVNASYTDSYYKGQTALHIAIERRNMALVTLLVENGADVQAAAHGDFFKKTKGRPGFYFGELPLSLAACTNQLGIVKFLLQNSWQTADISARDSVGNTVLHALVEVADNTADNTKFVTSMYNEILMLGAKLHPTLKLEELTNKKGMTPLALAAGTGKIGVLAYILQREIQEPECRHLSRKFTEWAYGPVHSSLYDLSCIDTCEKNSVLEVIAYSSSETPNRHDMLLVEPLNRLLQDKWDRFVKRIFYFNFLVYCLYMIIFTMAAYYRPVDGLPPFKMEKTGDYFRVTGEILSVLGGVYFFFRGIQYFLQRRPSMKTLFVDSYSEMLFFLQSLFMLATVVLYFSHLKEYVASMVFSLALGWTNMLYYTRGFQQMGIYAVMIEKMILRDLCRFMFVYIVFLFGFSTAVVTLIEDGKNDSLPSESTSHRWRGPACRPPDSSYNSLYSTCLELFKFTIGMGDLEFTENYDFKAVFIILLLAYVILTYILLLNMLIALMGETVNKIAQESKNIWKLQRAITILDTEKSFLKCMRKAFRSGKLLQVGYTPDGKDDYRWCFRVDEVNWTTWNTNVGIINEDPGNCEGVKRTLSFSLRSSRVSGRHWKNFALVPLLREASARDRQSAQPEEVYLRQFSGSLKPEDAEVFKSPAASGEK
Ki [1],SMILES,other results
6.7 nM,CCCCSc1cc(C(C)(C)C)ccc1CNC(=O)C(C)c1ccc(NS(C)(=O)=O)c(F)c1 (stereo not drawn),–
8.1 nM,CC(C(=O)NCc1ccc(C(C)(C)C)cc1N1CCCC1)c1ccc(NS(C)(=O)=O)c(F)c1 (stereo not drawn),–
112 nM,CC(C(=O)NCc1ccc(C(C)(C)C)nc1SCCCN1CCOCC1)c1ccc(NS(C)(=O)=O)c(F)c1 (stereo not drawn),–
6 nM,C[C@H](C(=O)NCc1ccc(C(C)(C)C)cc1SC1CCCCC1)c1ccc(NS(C)(=O)=O)c(F)c1,Activity [2]: Dose-dependent effect; MPE [3]: 83%
1.9 nM,CCCCCc1nc(C(C)(C)C)ccc1CNC(=O)C(C)c1ccc(NS(C)(=O)=O)c(F)c1 (stereo not drawn),–
0.8 nM,CC(C(=O)NCc1ccc(C(C)(C)C)nc1OCc1ccc(F)cc1)c1ccc(NS(C)(=O)=O)c(F)c1 (stereo not drawn),–
3.8 nM,CC(C(=O)NCc1ccc(C(C)(C)C)cc1OCc1ccc(F)cc1)c1ccc(NS(C)(=O)=O)c(F)c1 (stereo not drawn),–
0.8 nM,CC(C(=O)NCc1ccc(C(C)(C)C)cc1N1CCN(c2ccccc2)CC1)c1ccc(NS(C)(=O)=O)c(F)c1 (stereo not drawn),–
0.1 nM,CCC1CCN(c2nc(C(C)(C)C)ccc2CNC(=O)C(C)c2ccc(NS(C)(=O)=O)c(F)c2)CC1 (stereo not drawn),–
9.8 nM,CC(C(=O)NCc1ccc(C(C)(C)C)cc1C1CCCCC1)c1ccc(NS(C)(=O)=O)c(F)c1 (stereo not drawn),–
4.1 nM,CC(C(=O)NCc1ccc(C(C)(C)C)nc1SCC(F)(F)F)c1ccc(NS(C)(=O)=O)c(F)c1 (stereo not drawn),–
2.9 nM,CC(C(=O)NCc1ccc(C(C)(C)C)cc1OCc1ccccc1)c1ccc(NS(C)(=O)=O)c(F)c1 (stereo not drawn),–
6.2 nM,CC(C(=O)NCc1ccc(C(C)(C)C)cc1N1CCCCCC1)c1ccc(NS(C)(=O)=O)c(F)c1 (stereo not drawn),–
1 nM,CCCCN(C)c1cc(C(C)(C)C)ccc1CNC(=O)C(C)c1ccc(NS(C)(=O)=O)c(F)c1 (stereo not drawn),–
2.8 nM,CCCCCc1cc(C(C)(C)C)ccc1CNC(=O)C(C)c1ccc(NS(C)(=O)=O)c(F)c1 (stereo not drawn),–
3.5 nM,COc1ccc(CSc2nc(C(C)(C)C)ccc2CNC(=O)C(C)c2ccc(NS(C)(=O)=O)c(F)c2)cc1 (stereo not drawn),–
4 nM,CC(C(=O)NCc1ccc(C(C)(C)C)nc1SCc1ccccc1)c1ccc(NS(C)(=O)=O)c(F)c1 (stereo not drawn),–
0.3 nM,CC(C(=O)NCc1ccc(C(C)(C)C)nc1N1CCC(Cc2ccccc2)CC1)c1ccc(NS(C)(=O)=O)c(F)c1 (stereo not drawn),–
17.1 nM,CC(C(=O)NCc1ccc(C(C)(C)C)nc1SCCCN1CCCC1)c1ccc(NS(C)(=O)=O)c(F)c1 (stereo not drawn),–
3.4 nM,CC(C(=O)NCc1ccc(C(C)(C)C)nc1SCc1ccc(Cl)cc1)c1ccc(NS(C)(=O)=O)c(F)c1 (stereo not drawn),–
3.1 nM,CCCCCSc1nc(C(C)(C)C)ccc1CNC(=O)C(C)c1ccc(NS(C)(=O)=O)c(F)c1 (stereo not drawn),–

Ki [1],SMILES,other results
1.5 nM,CCCCCCSc1nc(C(C)(C)C)ccc1CNC(=O)C(C)c1ccc(NS(C)(=O)=O)c(F)c1 (stereo not drawn),–
1.9 nM,CC(C(=O)NCc1ccc(C(C)(C)C)cc1N1CCCCC1)c1ccc(NS(C)(=O)=O)c(F)c1 (stereo not drawn),–
6 nM,COc1cccc(COc2nc(C(C)(C)C)ccc2CNC(=O)C(C)c2ccc(NS(C)(=O)=O)c(F)c2)c1 (stereo not drawn),–
1.1 nM,CC(C(=O)NCc1ccc(C(C)(C)C)nc1N1CCCCC1)c1ccc(NS(C)(=O)=O)c(F)c1 (stereo not drawn),–
3.8 nM,CC(C(=O)NCc1ccc(C(C)(C)C)nc1SCc1ccccc1Cl)c1ccc(NS(C)(=O)=O)c(F)c1 (stereo not drawn),–
3.2 nM,CCCCSc1nc(C(C)(C)C)ccc1CNC(=O)C(C)c1ccc(NS(C)(=O)=O)c(F)c1 (stereo not drawn),–
89.2 nM,C[C@@H](C(=O)NCc1ccc(C(C)(C)C)cc1SC1CCCCC1)c1ccc(NS(C)(=O)=O)c(F)c1,–
0.6 nM,CC(C)CCOc1cc(C(C)(C)C)ccc1CNC(=O)C(C)c1ccc(NS(C)(=O)=O)c(F)c1 (stereo not drawn),–
51.8 nM,CC(C(=O)NCc1ccc(C(C)(C)C)nc1SCCCN(C)C)c1ccc(NS(C)(=O)=O)c(F)c1 (stereo not drawn),–
36.4 nM,C[C@@H](C(=O)NCc1ccc(C(C)(C)C)nc1SC1CCCCC1)c1ccc(NS(C)(=O)=O)c(F)c1,–
3.1 nM,CC(C(=O)NCc1ccc(C(C)(C)C)nc1C1CCCCC1)c1ccc(NS(C)(=O)=O)c(F)c1 (stereo not drawn),–
3.4 nM,C[C@H](C(=O)NCc1ccc(C(C)(C)C)nc1SC1CCCCC1)c1ccc(NS(C)(=O)=O)c(F)c1,Activity [3]: Active; MPE [4]: 50%; MPE [5]: 46%; MPE [6]: 15%
2.5 nM,CC(C(=O)NCc1ccc(C(C)(C)C)nc1SC1CCCC1)c1ccc(NS(C)(=O)=O)c(F)c1 (stereo not drawn),–
5.9 nM,CC(C)CCSc1nc(C(C)(C)C)ccc1CNC(=O)C(C)c1ccc(NS(C)(=O)=O)c(F)c1 (stereo not drawn),–
0.3 nM,CC(C(=O)NCc1ccc(C(C)(C)C)nc1-c1ccc(F)cc1)c1ccc(NS(C)(=O)=O)c(F)c1 (stereo not drawn),–
1.2 nM,CCCCN(C)c1nc(C(C)(C)C)ccc1CNC(=O)C(C)c1ccc(NS(C)(=O)=O)c(F)c1 (stereo not drawn),–
8.5 nM,CC(C(=O)NCc1ccc(C(C)(C)C)nc1SC1CCCCC1)c1ccc(NS(C)(=O)=O)c(F)c1 (stereo not drawn),–
0.5 nM,CCCCCCOc1cc(C(C)(C)C)ccc1CNC(=O)C(C)c1ccc(NS(C)(=O)=O)c(F)c1 (stereo not drawn),–
4.4 nM,CCCOc1cc(C(C)(C)C)ccc1CNC(=O)C(C)c1ccc(NS(C)(=O)=O)c(F)c1 (stereo not drawn),–
7.4 nM,CC(C(=O)NCc1ccc(C(C)(C)C)cc1SC1CCCCC1)c1ccc(NS(C)(=O)=O)c(F)c1 (stereo not drawn),–
0.7 nM,CC1CCN(c2cc(C(C)(C)C)ccc2CNC(=O)C(C)c2ccc(NS(C)(=O)=O)c(F)c2)CC1 (stereo not drawn),–
